Data set [1] in a line: Cytotoxicity against African green monkey Vero cells assessed as reduction cell survival rate after 72 hrs by CCK8 assay. In kind it is toxicity, cell-based, Chlorocebus sabaeus. (In general: Tetrazolium dyes change colour on reduction, which living cells bring about.)
Data set [2] is described as follows: Solubility of the compound. It is filed as physicochemical.
The subject of data set [3] is Mycobacterium tuberculosis. Put plainly: Antitubercular activity against Mycobacterium tuberculosis H37Ra transfected with TYOK plasmid assessed as relative light units after 4 days by selectable marker-free autoluminescent assay. It is filed as functional. The settings on record: 96 h.
Data set [4] has as its system Mycobacterium tuberculosis. Put plainly: In vivo anti-tubercular activity against Mycobacterium tuberculosis H37Ra transfected with TYOK plasmid infected in BALB/c mouse assessed as increase in ratio of RLU on day 3 to RLU on day 1 at 10 mg/kg/day administered QD for 3 days relative to control. In kind it is functional.
Data set [5] can be described thus: AUC (0 to infinity) in Sprague-Dawley rat at 10 mg/kg, administered through oral gavage by LC/MS analysis. In kind it is ADME, organism-based. On the set-up: dose 10 mg/kg, time infinity, route oral. As to conditions: in vivo.
Data set [6] is described as follows: Tmax in Sprague-Dawley rat at 2 mg/kg, iv by LC/MS analysis. In kind it is ADME, organism-based. As to conditions: in vivo.
In data set [7] the test system is Mycobacterium tuberculosis. Kind of data set: In vivo anti-tubercular activity against Mycobacterium tuberculosis H37Ra transfected with TYOK plasmid infected in BALB/c mouse assessed as ratio of RLU on day 3 to RLU on day 1 at 40 mg/kg/day administered QD for 3 days. It is filed as functional.
Data set [8] in a line: Clearance in Sprague-Dawley rat at 10 mg/kg, administered through oral gavage by LC/MS analysis. In kind it is ADME, organism-based. The settings on record: in vivo.
A short description of data set [9]: Tmax in Sprague-Dawley rat at 10 mg/kg, administered through oral gavage by LC/MS analysis. It is filed as ADME, organism-based. As to conditions: in vivo.
A short description of data set [10]: AUC (0 to infinity) in Sprague-Dawley rat at 2 mg/kg, iv by LC/MS analysis. On the set-up: dose 2 mg/kg, time infinity, route intravenous. As to conditions: in vivo. In kind it is ADME, organism-based.
Data set [11] in a line: Clearance in Sprague-Dawley rat at 2 mg/kg, iv by LC/MS analysis. In kind it is ADME, organism-based. The settings on record: in vivo.
Data set [12] has as its system Mycobacterium tuberculosis. Put plainly: In vivo anti-tubercular activity against Mycobacterium tuberculosis H37Ra transfected with TYOK plasmid infected in BALB/c mouse assessed as ratio of RLU on day 3 to RLU on day 1 at 10 mg/kg/day administered QD for 3 days. In kind it is functional.
The test system of data set [13] is Mycobacterium tuberculosis. Put plainly: In vivo anti-tubercular activity against Mycobacterium tuberculosis H37Ra transfected with TYOK plasmid infected in BALB/c mouse assessed as ratio of RLU on day 3 to RLU on day 1 at 2.5 mg/kg/day administered QD for 3 days. It is filed as functional.
A short description of data set [14]: Half life in Sprague-Dawley rat at 10 mg/kg, administered through oral gavage by LC/MS analysis. In kind it is ADME, organism-based. The settings on record: in vivo.
The nature of data set [15]: Cmax in Sprague-Dawley rat at 2 mg/kg, iv by LC/MS analysis. In kind it is ADME, organism-based. On the set-up: dose 2 mg/kg, route intravenous. The settings on record: in vivo.
Data set [16] in a line: Half life in Sprague-Dawley rat at 2 mg/kg, iv by LC/MS analysis. The settings on record: in vivo. In kind it is ADME, organism-based.
Data set [17] can be described thus: Oral bioavailability in Sprague-Dawley rat at 10 mg/kg by LC/MS analysis. In kind it is ADME, organism-based. As to conditions: in vivo.
For data set [18], the system named is Mycobacterium tuberculosis. Kind of data set: In vivo anti-tubercular activity against Mycobacterium tuberculosis H37Ra transfected with TYOK plasmid infected in BALB/c mouse assessed as decrease in ratio of RLU on day 3 to RLU on day 1 administered QD for 3 days. In kind it is functional, organism-based.
Data set [19] can be described thus: Cmax in Sprague-Dawley rat at 10 mg/kg, administered through oral gavage by LC/MS analysis. It is filed as ADME, organism-based. On the set-up: dose 10 mg/kg, route oral. As to conditions: in vivo.

Values after ≈ are worked out from the molar mass of the structure shown.

Consider `Cc1nc2scc(C)n2c1C(=O)NCc1ccc(N2CCC(c3ccc(OC(F)(F)F)cc3)CC2)cc1`, for which the concentration for half-maximal inhibition (IC50) at 72 h in [1] is more than 100 µM. Also, the solubility entry in [2] was “Insoluble”. In data set [3], the MIC stood at 1 µg/mL (≈ 1.89 µM).
On to `CCc1nc2ccc(Cl)cn2c1C(=O)NCc1ccc(N2CCC(c3ccc(OC(F)(F)F)cc3)CC2)cc1` [TELACEBEC], for which the minimum inhibitory concentration (MIC) in data set [3] was found to be 0.003 µg/mL (≈ 0.00539 µM).
Turning to `Cc1nn2c(C)csc2c1C(=O)NCc1ccc(N2CCC(c3ccc(OC(F)(F)F)cc3)CC2)cc1`, the IC50 at 72 h in data set [1] was more than 100 µM. The MIC in data set [3] is 0.1 µg/mL (≈ 0.189 µM).
Take `Cc1nc2sccn2c1C(=O)NCc1ccc(N2CCC(c3ccc(OC(F)(F)F)cc3)CC2)cc1`: in data set [1], the IC50 at 72 h is more than 100 µM. In data set [3], the MIC was 0.03 µg/mL (≈ 0.0583 µM).
Regarding `Cc1ccn2nc(C)c(C(=O)NCc3ccc(N4CCC(c5ccc(OC(F)(F)F)cc5)CC4)cc3)c2n1`, in [3], the minimum inhibitory concentration (MIC) is more than 30 µg/mL.
On to `NNC(=O)c1ccncc1` [ISONIAZID], for which the MIC in data set [3] was 0.1 µg/mL (≈ 0.729 µM). The “fold change (FC)” value in [4] was found to be 1.25.
Regarding `Cc1ccc2[nH]c(C)c(C(=O)NCc3ccc(N4CCC(c5ccc(OC(F)(F)F)cc5)CC4)cc3)c2c1`, the MIC in [3] worked out at 10 µg/mL (≈ 19.2 µM).
In the case of `Cc1nn2ccsc2c1C(=O)NCc1ccc(N2CCC(c3ccc(OC(F)(F)F)cc3)CC2)cc1`, the IC50 at 72 h in data set [1] was more than 100 µM. The MIC in data set [3] was determined as 0.3 µg/mL (≈ 0.583 µM).
As to `CO[C@H]1/C=C/O[C@@]2(C)Oc3c(C)c(O)c4c(O)c(c(/C=N/N5CCN(C)CC5)c(O)c4c3C2=O)NC(=O)/C(C)=C\C=C\[C@H](C)[C@H](O)[C@@H](C)[C@@H](O)[C@@H](C)[C@H](OC(C)=O)[C@@H]1C` [RIFAMPIN], the MIC in data set [3] came to 0.003 µg/mL (≈ 0.00365 µM).
Regarding `Cc1ccc2oc(C)c(C(=O)NCc3ccc(N4CCC(c5ccc(OC(F)(F)F)cc5)CC4)cc3)c2c1`, the MIC in data set [3] is more than 30 µg/mL.
Same read-out and setting: the value for `Cc1nn2ccc(=O)[nH]c2c1C(=O)NCc1ccc(N2CCC(c3ccc(OC(F)(F)F)cc3)CC2)cc1` was more than 30 µg/mL.
On to `Cc1cn2c(C(=O)NCc3ccc(N4CCC(c5ccc(OC(F)(F)F)cc5)CC4)cc3)c(C)nc2s1`, for which, in data set [1], the IC50 at 72 h was more than 100 µM. In addition, in data set [2], the solubility result was “Insoluble”. Besides, the MIC in data set [3] was 0.01 µg/mL (≈ 0.0189 µM).
As for `Cc1cn2nc(C)c(C(=O)NCc3ccc(N4CCC(c5ccc(OC(F)(F)F)cc5)CC4)cc3)c2s1`, the AUC(0-inf) is 8560 ng·h/mL in [5] and 4110 ng·h/mL in data set [10]. In addition, the time to peak (Tmax) in data set [6] turned out to be 4.98 min; in data set [9] it was 5 h. For the same compound, the Ratio in data set [7] is 0.36; in data set [12], 0.91; in data set [13] it was 1.05. Further, the IC50 at 72 h in data set [1] was more than 100 µM. Moreover, the CL/F in data set [8] was 20.2 mL/min/kg. Further, the clearance in data set [11] is 8.17 mL/min/kg. For the same compound, the MIC in data set [3] is 0.03 µg/mL (≈ 0.0568 µM). For the same compound, the half-life was 13.4 h in data set [14] and 14.1 h in data set [16]. For the same compound, the figures for the highest concentration (Cmax) in data set [15] and in data set [19] were 1720 ng/mL and 373 ng/mL, respectively. For the same compound, the bioavailability in data set [17] was determined as 41.7%. Also, the Activity entry in data set [18] was “Dose-dependent effect”.

As a reminder, the IC50 is the concentration that inhibits the measured activity by half. The term MIC denotes the smallest concentration in the dilution series that meets the test's criterion for growth inhibition. The term AUC(0-inf) denotes the area under the concentration-time curve extrapolated to infinity. In general, Tmax refers to the time at which the peak concentration occurs. A word on the CL/F: it is the apparent clearance, not corrected for the fraction that reaches the circulation. The term clearance denotes a measure of how efficiently the substance is removed, as volume per time. In general, half-life refers to how long it takes for the measured level to halve. Broadly, the Cmax is the peak of the concentration-time curve. By bioavailability is commonly meant dose-corrected exposure relative to a reference, in per cent.

The values are drawn from ChEMBL document CHEMBL3868613, “Discovery of new chemical entities as potential leads against Mycobacterium tuberculosis” (Bioorg Med Chem Lett, 2016).
